Patent US20130210881A1, “ANTIMICROBIAL COMPOSITION” (Agency for Science ,Technology and Research, priority 2010, published 2013)

How the values were obtained:
Format in all cases: cell-based
[1] = system: Escherichia coli (ATCC 25922, gram-negative); assay: Antimicrobial analysis, MIC, E. coli; conditions: ATCC25922, 37° C., 24 hours, concentration necessary to inhibit complete cell growth
Method: (§1) All bacteria and yeast originated from a −80° C. frozen stock. Bacteria were grown overnight at 37° C. in Tryptic Soy broth (TSB) and yeast was grown overnight at 22° C. in Yeast Mold (YM) broth. Sub-samples of these cultures were grown for three hours further and diluted to an OD600 of 0.1. The bacteria solutions (about 2˜5×10^8 cells/mL) were then added to the 96-well plate and were incubated at 37° C. for 24 hours. All experiments were run in triplicate and the reported minimum inhibitory concentration (MIC) is the concentration necessary to inhibit complete cell growth.

[2] = system: Bacillus subtilis (ATCC 23857, gram-positive); assay: Antimicrobial analysis, MIC, B. subtilis; conditions: ATCC23857, 37° C., 24 hours, concentration necessary to inhibit complete cell growth
Method: as §1

[3] = system: Candida albicans (ATCC 10231, yeast); assay: Antimicrobial analysis, MIC, C. albicans; conditions: ATCC10231, concentration necessary to inhibit complete cell growth
Method: as §1

Measured: MIC

c1ccc(C[n+]2ccn(Cc3ccccc3Cn3cc[n+](Cc4ccccc4)c3)c2)cc1 [Sample 3b]
> 250 µg/mL: all assays above

c1ccc(C[n+]2ccn(Cc3ccc(Cn4cc[n+](Cc5ccccc5)c4)cc3)c2)cc1 [Sample 3a]
> 250 µg/mL: all assays above

c1ccc(C[n+]2ccn(Cc3ccc(Cn4cc[n+](Cc5ccc(Cn6cc[n+](Cc7ccccc7)c6)cc5)c4)cc3)c2)cc1 [Sample 3c]
> 250 µg/mL: all assays above

C(=C/CCn1cc[n+](Cc2ccccc2)c1)/CCn1cc[n+](CC/C=C\CCn2cc[n+](Cc3ccccc3)c2)c1 [Sample 3d]
> 250 µg/mL: all assays above

C(=C/CCn1cc[n+](Cc2ccc(Cn3cc[n+](CC/C=C\CCn4cc[n+](Cc5ccccc5)c4)c3)cc2)c1)/CCn1cc[n+](Cc2ccccc2)c1 [Sample 3f]
> 250 µg/mL: all assays above
